Reference: patent US20220040230A1, “COMPOSITIONS AND METHODS FOR IMMUNOTHERAPIES” (The Regents of the University of California, priority 2018, published 2022)

Columns and labels:
[1] = test system: MP2; assay: Surface expression on MP2 by flow cytometry; assay type: cell-based, human; conditions: 24 h
Description: MP2 cells were left untreated or treated with rhTNF-α (20 ng/mL), rhIFN-γ (200 U/mL) or the combination of rhTNF-α (20 ng/mL) and rhIFN-γ (200 U/mL) for 24 h. Afterwards, the cells were detached and the surface expression of CD44, CD54, MHC-class I and B7H1 were assessed using PE conjugated antibodies followed by flow cytometric analysis. Isotype controls were used as controls (FIG. 14A). MP2 and Capan cells were treated as described in FIG. 14A, and were detached from the tissue culture plates, labeled with ^51Cr and used in a standard 4-hour ^51Cr release assay using IL-2 (1000 U/mL) treated NK cells. Pre-treatment of NK cells with IL-2 (1000 U/ml) were carried out for 18-24 hours. Percent cytotoxicity was determined at different effector to target ratio and the lytic units 30/10^6 cells were determined using inverse number of NK cells required to lyse 30% of the tumor cells×100 (FIG. 14B).
Staining was performed by labeling the cells with antibodies as described previously. Briefly, the cells were washed twice with ice-cold PBS/1% BSA. Predetermined optimal concentrations of specific human flow cytometric antibodies were added to 1×10^4 cells in 50 μl of cold-PBS/1% BSA and cells were incubated on ice for 30 min. […] Flow cytometry analysis was performed using Beckman Coulter Epics XL cytometer (Brea, Calif.) and results were analyzed in FlowJo vX software (Ashland, Oreg.).

[2] = test system: OSCCs; assay: Chemotherapy-mediated cell death of OSCCs; assay type: cell-based, human
[3] = test system: OSCSCs; assay: Chemotherapy-mediated cell death of OSCSCs; assay type: cell-based, human
[4] = test system: PL12; assay: Propidium iodide cell death assay, PL12
[5] = test system: Capan; assay: Propidium iodide cell death assay, Capan
[6] = test system: NK-supernatant differentiated MP2 tumors; assay: Propidium iodide cell death assay, NK-supernatant differentiated MP2; assay type: cell-based, human
Description: (§1) P-values of <0.05 were obtained for differences between MP2 vs. PL12 and Capan at the concentrations of 10 nM, 200 nM, 600 nM, 1000 nM and […] of Paclitaxel (n=2 per each experimental condition) (FIG. 25A).
Differentiation of MP2 tumors was conducted as described previously. NK cells were treated with a combination of anti-CD16mAb (3 μg/mL) and IL-2 (1,000 U/mL) for 18 hours before supernatants were removed and used for differentiation experiments. The amounts of IFN-γ produced by activated NK cells were assess with IFN-γ ELISA (Biolegend, CA, USA). MP2 cells were differentiated with gradual daily addition of increasing amounts of NK cell supernatants (of corresponding treatments). On average, to induce differentiation, a total of 3,500 pg of IFN-γ containing supernatants were added for 4 days to induce differentiation and resistance of MP2 tumor cells to NK cell-mediated cytotoxicity. Afterwards, target cells were washed with 1×PBS, detached and used for experiments.

[7] = test system: MP2; assay: Propidium iodide cell death assay, MP2; assay type: cell-based, human; conditions: NAC (20 nM) 24 hours before paclitaxel
Description: as §1

[8] = test system: MP2; assay: 4-hour 51Cr release cytotoxicity / ADCC assay against MP2; assay type: cell-based, human; conditions: IL-2 treated NK cells; tumor cells treated 24 h
Description: The target cells (5×10^5) were labeled with 50 μCi ^51Cr (Perkin Elmer, Santa Clara, Calif.) and chromated for 1 hour. Following incubation, target cells were washed once to remove excess unbound ^51Cr. […] Following incubation, target cells were washed again to remove excess unbound antibody and ^51Cr. Labeled target cells were culture with effector cells and the cytotoxicity against target cells were assessed using ^51Cr release cytotoxicity assay.
^51Cr Release Cytotoxicity Assay ^51Cr was purchased from Perkin Elmer (Santa Clara, Calif.). Standard ^51Cr release cytotoxicity assays were used to determine NK cell cytotoxic function in the experimental cultures. […] After a 4-hour incubation period, the supernatants were harvested from each sample and counted for released radioactivity using the gamma counter. Total (containing ^51Cr labeled target cells) and spontaneous (supernatants of target cells alone) release values were measured and used to calculate the percentage specific cytotoxicity. The percentage specific cytotoxicity was calculated using the following formula: […]
Lu30/10^6 is calculated by using the inverse of the number of effector cells needed to lyse 30% of target cells×100.
The ^51Cr release assay was performed as described previously. […] The percentage specific cytotoxicity was calculated using the following formula: […]

[9] = NAC (20 nM) 24 hours before paclitaxel

With “rhIFN-γ: Recombinant human IFN-γ from Biolegend” as the molecule, how does the “surface expression of B7H1 on MP2” value [1] read?
The value was “upregulate B7H1”.

And the “surface expression of CD54, MHC-class I, B7H1 and CD44 on MP2” value ([1]; rhTNF-α 20 ng/mL, rhIFN-γ 200 U/mL)?
Its value is “increase surface expression of CD54 and MHC-class I”.

Which results are given for `N.N.[Cl][Pt][Cl]` [CDDP, cis-dichlorodiammineplatinum]?
cell death of patient-derived differentiated OSCCs [2]: higher cell death; cell death of stem-like/poorly differentiated OSCSCs [3]: minimal effects

For `CC(=O)O[C@H]1C(=O)[C@@]2(C)[C@H]([C@H](OC(=O)c3ccccc3)[C@]3(O)C[C@H](OC(=O)[C@H](O)[C@@H](NC(=O)c4ccccc4)c4ccccc4)C(C)=C1C3(C)C)[C@]1(OC(C)=O)CO[C@@H]1C[C@@H]2O` [paclitaxel], which “paclitaxel mediated cell death of PL12” value ([4]; compared with MP2) is on record?
The value was “higher levels of cell death”.

And the “paclitaxel mediated cell death of Capan” value ([5]; compared with MP2)?
Its value is “higher levels of cell death”.

And the “cell death of patient-derived differentiated OSCCs” value [2]?
The value was “higher cell death”.

And the “paclitaxel mediated cell death of NK-supernatant differentiated MP2” value [6]?
The value was “susceptibility to paclitaxel”.

And the “cell death of stem-like/poorly differentiated OSCSCs” value [3]?
Its value is “minimal effects”.

`CC(=O)N[C@@H](CS)C(=O)O` [NAC, N-Acetyl Cysteine] was tested. Which “effect of NAC on paclitaxel mediated cell death of PL12” value [4, 9] did it give?
Its value is “increased paclitaxel mediated cell death”.

And the “effect of NAC on paclitaxel mediated cell death of MP2” value [7]?
The value was “increased paclitaxel mediated cell death”.

And the “effect of NAC on paclitaxel mediated cell death of Capan” value [5, 9]?
Its value is “increased paclitaxel mediated cell death”.

What about the “effect of NAC on cell death of NK-supernatant differentiated MP2” value [6, 9] of the same molecule?
The value was “increased cell death”.

B1: rhIFN-γ: Recombinant human IFN-γ from Biolegend (protein, UniProt P01579 24-161, looked up)
Interferon gamma: QDPYVKEAENLKKYFNAGHSDVADNGTLFLGILKNWKEESDRKIMQSQIVSFYFKLFKNFKDDQSIQKSVETIKEDMNVKFFNSNKKKRDDFEKLTNYSVTDLNVQRKAIHELIQVMAELSPAAKTGKRKRSQMLFRG
How did the “resistance of MP2 against NK cell mediated cytotoxicity” value [8] turn out when B1 was run?
Its value is “significant resistance”.
